# Results as given in patent US20180042918A1, “RESPIRATORY INFECTION TREATING AGENT” (KYORIN PHARMACEUTICAL CO., LTD., priority 2015, published 2018).
# Marks after values point to notes of the source that are not given here.
# Tests used:
# S. pneumoniae NF9884 = test: microbe, parasite or virus in culture; type: cell-based; conditions: Streptococcus pneumoniae
# S. aureus ATCC29213 [1] = test: MIC of strain used for resistance frequency test; type: cell-based; conditions: Staphylococcus aureus, ATCC29213
# S. pneumoniae CF9842 = test: microbe, parasite or virus in culture; type: cell-based; conditions: Streptococcus pneumoniae
# S. aureus MS5935 1st = test: microbe, parasite or virus in culture; type: cell-based; conditions: Staphylococcus aureus, MS59351ST
# [2] = test system: M. catarrhalis (26 STRAINS); test: Antibacterial activity against clinically isolated strains, MIC90; type: cell-based; conditions: Moraxella catarrhalis, 26 clinically isolated strains
# Description: (§1) The antibacterial activities in vitro of the compound D, garenoxacin, and levofloxacin against each clinically isolated strain of Streptococcus pneumoniae, Moraxella catarrhalis, and Haemophilus influenzae were measured in accordance with a CLSI microdilution method or a CLSI agar dilution method. A MIC90 value was the minimum concentration in which the growth of 90% strain of all the measured strains was inhibited.
# [3] = test system: PCG-LOW SENSITIVE S. pneumoniae (22 STRAINS); test: as above; type: cell-based; conditions: Streptococcus pneumoniae, 22 clinically isolated strains
# Description: as §1
# [4] = test system: H. influenzaes (26 STRAINS); test: as above; type: cell-based; conditions: Haemophilus influenzae, 26 clinically isolated strains
# Description: as §1
# PSSP (26 STRAINS) = test: as above; type: cell-based; conditions: Streptococcus pneumoniae, 26 clinically isolated strains
# Description: as §1
# S. pneumoniae ATCC49619 [5] = test: microbe, parasite or virus in culture; type: cell-based; conditions: Streptococcus pneumoniae
# [6] = target: Topoisomerase IV (S. aureus) (Staphylococcus aureus, UniProt P0C1S7+P0C1U9); test: Enzyme inhibitory activity, decatenation of kinetoplast DNA; type: biochemical; conditions: S. aureus enzyme; read-out: IC50 VALUE, Topoisomerase IV (converted)
# Description: (§2) Agents Chemother. 45: 3544-3547 (2001). […] The measurement was performed in the same manner as in Test Example 3. Similarly, the inhibitory activities of ciproxacin, levofloxacin, and garenoxacin were measured. The results were compared.
# [7] = target: QUINOLONE RESISTANT Topoisomerase IV (S. aureus) (Staphylococcus aureus, UniProt P0C1U9); test: as above; type: biochemical; conditions: read-out: IC50 VALUE, QUINOLONE RESISTANT Topoisomerase IV (converted)
# Description: as §2
# [8] = target: DNA gyrase derived from S. pneumoniae IID553 (Streptococcus pneumoniae serotype 4, UniProt P0A4L9+P72524); test: Enzyme inhibitory activity, supercoiling of relaxed pBR322
# E. coli ATCC25922 [9] = test: microbe, parasite or virus in culture; type: cell-based; conditions: Escherichia coli
# [10] = consecutive administration, daily dose of 500 mg; cited from earlier work
# S. aureus MS5935 = test: Antibacterial activity against quinolone-resistant strain in vitro, CLSI dilution; type: cell-based; conditions: Staphylococcus aureus; S. aureus MS5935, PARENT STRAIN, gyrA None, grlA None
# S. aureus ATCC29213 [11] = test: Frequency of development of resistant bacteria; type: cell-based, Staphylococcus aureus; conditions: about 70 hours
# Description: (§3) S. aureus ATCC29213 is Staphylococcus aureus, S. pneumoniae ATCC49619 is Streptococcus pneumoniae, and E. coli ATCC25922 is Escherichia coli. […]
# (§4) The frequency of development of resistant bacteria was calculated by dividing the number of colonies developed on an agar medium having each drug concentration by the number of initially inoculated bacteria.
# S. pneumoniae SF9863 = test: microbe, parasite or virus in culture; type: cell-based; conditions: Streptococcus pneumoniae
# E. coli ATCC25922 [12] = test: Frequency of development of resistant bacteria; type: cell-based, Escherichia coli; conditions: about 70 hours
# Description: as §3, §4
# [13] = target: Topoisomerase IV (S. pneumoniae IID553) (Streptococcus pneumoniae serotype 4, UniProt P72525+Q59961); test: Enzyme inhibitory activity, decatenation of kinetoplast DNA
# S. pneumoniae KY-9 = test: Antibacterial activity against Streptococcus pneumoniae in vitro, CLSI microdilution; type: cell-based; conditions: KY9
# Description: The antibacterial activities in vitro of the compound D, garenoxacin, and levofloxacin against a strain in a mouse infected with Streptococcus pneumoniae (S. pneumonia KY-9) were measured in accordance with a CLSI microdilution method.
# S. pneumoniae ST9941 = test: microbe, parasite or virus in culture; type: cell-based; conditions: Streptococcus pneumoniae
# S. aureus MS5935 3rd = test: microbe, parasite or virus in culture; type: cell-based; conditions: Staphylococcus aureus, MS59353RD
# S. pneumoniae GF9821 = test: microbe, parasite or virus in culture; type: cell-based; conditions: Streptococcus pneumoniae
# [14] = target: DNA gyrase derived from S. aureus (Staphylococcus aureus, UniProt P0A0K8+P20831); test: Enzyme inhibitory activity, supercoiling of relaxed pBR322; type: biochemical; conditions: S. aureus enzyme; average of three or average ± SD; read-out: IC50 VALUE, DNA gyrase (converted)
# Description: as §2
# [15] = target: QUINOLONE RESISTANT DNA gyrase (quinolone-resistant S. aureus) (Staphylococcus aureus, UniProt P20831); test: as above; type: biochemical; conditions: average of three or average ± SD, read-out: IC50 VALUE, QUINOLONE RESISTANT DNA gyrase (converted)
# Description: as §2
# S. pneumoniae IID553 = test: microbe, parasite or virus in culture; type: cell-based; conditions: Streptococcus pneumoniae
# S. aureus MS5935 4th = test: microbe, parasite or virus in culture; type: cell-based; conditions: Staphylococcus aureus, MS59354TH
# [16] = test system: S. aureus MS5935 gyrA mutant; test: microbe, parasite or virus in culture; type: cell-based; conditions: Staphylococcus aureus
# S. aureus MS5935 2nd = test: microbe, parasite or virus in culture; type: cell-based; conditions: Staphylococcus aureus, MS59352ND
# S. pneumoniae SN9981 = test: microbe, parasite or virus in culture; type: cell-based; conditions: Streptococcus pneumoniae
# S. pneumoniae ATCC49619 [17] = test: Frequency of development of resistant bacteria; type: cell-based, Streptococcus pneumoniae; conditions: about 70 hours
# Description: as §3, §4
# [18] = Concentration in tissue (rat, oral administration), radioactivity; type: in vivo; conditions: SD rat, single oral 10.83 mg/kg; for RADIOACTIVITY CONCENTRATION IN TISSUE, LUNG / RADIOACTIVITY CONCENTRATION IN TISSUE, PLASMA: fasting
# Description: The compound C (10.83 mg/kg) (solvent: water) was single orally administrated to a SD rat under fasting. 1, 6, and 24 hours after the administration, the lung tissue and the plasma were collected. The lung tissue was dried and treated by a sample oxidizer system (Sample Oxidizer: Model 307, PerkinElmer Inc., glass vial: 20 mL, Wheaton Industries, carbon dioxide absorbent: Carbo-Sorb 8 mL, PerkinElmer Inc., scintillation cocktail: Permafluor 12 mL, PerkinElmer Inc.), and the radioactivity concentration was measured. The plasma was fractionated in a midi-vial (8 mL, PerkinElmer Inc.), 6 mL of scintillation cocktail (Ultima Gold) was added, and the radioactivity concentration was measured. The radioactivity concentration was measured using a liquid scintillation counter (Tri-Carb 2500TR or 2700TR, PerkinElmer Inc.) (average value, n=3).
# [19] = rat, 1.0 hour after oral administration; cited from earlier work
smiles,measurement,setting,value
"C[C@H]1COc2c(N3CCN(C)CC3)c(F)cc3c(=O)c(C(=O)O)cn1c23 [LVFX, levofloxacin]",MIC,S. pneumoniae NF9884,2 µg/mL
same,MIC,S. aureus ATCC29213 [1],0.125 µg/mL
same,MIC,S. pneumoniae CF9842,2 µg/mL
same,MIC,S. aureus MS5935 1st,0.5 µg/mL
same,MIC90,[2],0.03 µg/mL
same,MIC90,[3],1 µg/mL
same,MIC90,[4],0.03 µg/mL
same,MIC90,PSSP (26 STRAINS),1 µg/mL
same,MIC,S. pneumoniae ATCC49619 [5],1 µg/mL
same,IC50,[6],7.75 µM
same,IC50,[7],238 µM
same,IC50,[8],443 µM
same,MIC,E. coli ATCC25922 [9],0.015 µg/mL
same,AUC,[10],49670 ng·h/mL
same,Cmax,[10],6320 ng/mL
same,MIC,S. aureus MS5935,0.125 µg/mL
same,FREQUENCY OF DEVELOPMENT OF RESISTANT BACTERIA (AVERAGE OF TWO MEASURED VALUES),"S. aureus ATCC29213 [11]; S. aureus ATCC29213, 4 × MIC",<2.1 × 10^−9
same,FREQUENCY OF DEVELOPMENT OF RESISTANT BACTERIA (AVERAGE OF TWO MEASURED VALUES),"S. aureus ATCC29213 [11]; S. aureus ATCC29213, 8 × MIC",<2.1 × 10^−9
same,FREQUENCY OF DEVELOPMENT OF RESISTANT BACTERIA (AVERAGE OF TWO MEASURED VALUES),"S. aureus ATCC29213 [11]; S. aureus ATCC29213, 16 × MIC",<2.1 × 10^−9
same,MIC,S. pneumoniae SF9863,2 µg/mL
same,FREQUENCY OF DEVELOPMENT OF RESISTANT BACTERIA (AVERAGE OF TWO MEASURED VALUES),"E. coli ATCC25922 [12]; E. coli ATCC25922, 4 × MIC",3.9 × 10^−9*
same,FREQUENCY OF DEVELOPMENT OF RESISTANT BACTERIA (AVERAGE OF TWO MEASURED VALUES),"E. coli ATCC25922 [12]; E. coli ATCC25922, 8 × MIC",<1.9 × 10^−9
same,FREQUENCY OF DEVELOPMENT OF RESISTANT BACTERIA (AVERAGE OF TWO MEASURED VALUES),"E. coli ATCC25922 [12]; E. coli ATCC25922, 16 × MIC",<1.9 × 10^−9
same,IC50,[13],30.4 µM
same,MIC,S. pneumoniae KY-9,1 µg/mL
same,MIC,S. pneumoniae ST9941,16 µg/mL
same,MIC,S. aureus MS5935 3rd,32 µg/mL
same,MIC,S. pneumoniae GF9821,2 µg/mL
same,IC50,[14],44.3 µM
same,IC50,[15],3600 µM
same,MIC,S. pneumoniae IID553,1 µg/mL
same,MIC,S. aureus MS5935 4th,128 µg/mL
same,MIC,[16],0.25 µg/mL
same,MIC,S. aureus MS5935 2nd,8 µg/mL
same,MIC,S. pneumoniae SN9981,16 µg/mL
same,FREQUENCY OF DEVELOPMENT OF RESISTANT BACTERIA (AVERAGE OF TWO MEASURED VALUES),"S. pneumoniae ATCC49619 [17]; S. pneumoniae ATCC49619, 4 × MIC",<1.1 × 10^−8
same,FREQUENCY OF DEVELOPMENT OF RESISTANT BACTERIA (AVERAGE OF TWO MEASURED VALUES),"S. pneumoniae ATCC49619 [17]; S. pneumoniae ATCC49619, 8 × MIC",<1.1 × 10^−8
same,FREQUENCY OF DEVELOPMENT OF RESISTANT BACTERIA (AVERAGE OF TWO MEASURED VALUES),"S. pneumoniae ATCC49619 [17]; S. pneumoniae ATCC49619, 16 × MIC",<1.1 × 10^−8
"COc1c(N2C[C@H](CNC3CC3)[C@H](F)C2)c(F)cc2c(=O)c(C(=O)O)cn(CCF)c12.Cl [Compound C, 7-[(3S,4S)-3-{(cyclopropylamino)methyl}-4-fluoropyrrolidine-1-yl]-6-fluoro-1-(2-fluoroethyl)-8-methoxy-4-oxo-1,4-dihydro[2-^14C1]quinoline-3-carboxylic acid hydrochloride]","RADIOACTIVITY CONCENTRATION IN TISSUE, LUNG",[18]; 1 hr,10.3 μg eq./mL or g
same,"RADIOACTIVITY CONCENTRATION IN TISSUE, LUNG",[18]; 6 hr,2.44 μg eq./mL or g
same,"RADIOACTIVITY CONCENTRATION IN TISSUE, LUNG",[18]; 24 hr,0.0541 μg eq./mL or g
same,"RADIOACTIVITY CONCENTRATION IN TISSUE, PLASMA",[18]; 1 hr,2.79 μg eq./mL or g
same,"RADIOACTIVITY CONCENTRATION IN TISSUE, PLASMA",[18]; 6 hr,0.815 μg eq./mL or g
same,"RADIOACTIVITY CONCENTRATION IN TISSUE, PLASMA",[18]; 24 hr,0.0294 μg eq./mL or g
same,"TISSUE DISTRIBUTION RATIO, LUNG",[18]; 1 hr,3.7
same,"TISSUE DISTRIBUTION RATIO, LUNG",[18]; 6 hr,3.0
same,"TISSUE DISTRIBUTION RATIO, LUNG",[18]; 24 hr,1.9
CC1COc2c(N3CCN(C)CC3)c(F)cc3c(=O)c(C(=O)O)cn1c23 (stereo not drawn) [ofloxacin],tissue distribution ratio into the lung tissue,[19],2.7
